Experimental data published in patent publication US20160031839A1, “ARGININE […] INHIBITORS AND USES THEREOF” (EPIZYME, INC., priority 2013, published 2016).
Read-outs that look alike come from different tables or passages of the source.

Key:
PRMT1 = target: T1, PRMT1 (Homo sapiens, UniProt Q99873); assay: PRMT1 Biochemical Assay
T1 construct: made in house; host or cells: High Five insect cells (baculovirus)
Text: Peptide representative of human histone H4 residues 36-50 was synthesized with an N-terminal linker-affinity tag motif and a C-terminal amide cap by 21st Century Biochemicals. The peptide was purified by high-performance liquid chromatography (HPLC) to greater than 95% purity and confirmed by liquid chromatography mass spectrometry (LC-MS). The sequence was Biot-Ahx-[…]-amide (SEQ ID NO.:1).
Full-length human PRMT1 isoform 1 (NM_001536.5) transcript clone was amplified from an HEK 293 cDNA library, incorporating flanking 5′ sequence encoding a FLAG tag ([…]) (SEQ ID NO.:2) fused directly to Met 1 of PRMT1. The amplified gene was subcloned into pFastBacI (Life Technologies) modified to encode an N-terminal GST tag and a TEV cleavage sequence
GST-tagged PRMT1 was eluted with 50 mM Tris, 2 mM glutathione, pH 7.8, dialysed in buffer A and concentrated to 1 mg/mL. The purity of recovered protein was 73%. Reference: Wasilko, D. J. and S. E. Lee: “TIPS: titerless infected-cells preservation and scale-up” Bioprocess J., 5 (2006), pp. 29-32.
General Procedure for PRMT1 Enzyme Assays on Peptide Substrates.
The assays were all performed in a buffer consisting of 20 mM Bicine (pH=7.6), 1 mM TCEP, 0.005% BSG, and 0.002% Tween 20, prepared on the day of use. Compounds in 100% DMSO (1 ul) were spotted into a polypropylene 384-well V-bottom plates (Greiner) using a Platemate Plus outfitted with a 384-channel head (Thermo Scientific). DMSO (1 ul) was added to Columns 11, 12, 23, 24, rows A-H for the maximum signal control and 1 ul of SAH, a known product and inhibitor of PRMT1, was added to columns 11, 12, 23, 24, rows I-P for the minimum signal control. A cocktail (40 ul) containing the PRMT1 enzyme was added by Multidrop Combi (Thermo-Fisher). The compounds were allowed to incubate with PRMT1 for 30 min at room temperature, then a cocktail (10 ul) containing SAM and peptide was added to initiate the reaction (final volume=51 ul). The final concentrations of the components were as follows: PRMT1 was 0.5 nM, ^3H-SAM was 200 nM, non-radiolabeled SAM was 1.5 uM, peptide was 20 nM, SAH in the minimum signal control wells was 1 mM, and the DMSO concentration was 2%. The assays were stopped by the addition of non-radiolabeled SAM (10 ul) to a final concentration of 300 uM, which dilutes the ^3H-SAM to a level where its incorporation into the peptide substrate is no longer detectable. 50 ul of the reaction in the 384-well polypropylene plate was then transferred to a 384-well Flashplate and the biotinylated peptides were allowed to bind to the streptavidin surface for at least 1 hour before being washed once with 0.1% Tween20 in a Biotek ELx405 plate washer. The plates were then read in a PerkinElmer TopCount plate reader to measure the quantity of ^3H-labeled peptide bound to the Flashplate surface, measured as disintegrations per minute (dpm) or alternatively, referred to as counts per minute (cpm).
(§1) Where dpm=disintegrations per minute, cmpd=signal in assay well, and min and max are the respective minimum and maximum signal controls.
(§2) Where top and bottom are the normally allowed to float, but may be fixed at 100 or 0 respectively in a 3-parameter fit. The Hill Coefficient normally allowed to float but may also be fixed at 1 in a 3-parameter fit. Y is the % inhibition and X is the compound concentration.

PRMT6 = target: T2, PRMT6 (Homo sapiens, UniProt Q96LA8); assay: PRMT6 Biochemical Assay
T2 construct: Expressed full-length human Flag- and His-tagged PRMT6 protein was purified from cell paste; made in house; host or cells: HEK 293F cells (BacMam baculovirus)
Text: Peptide representative of human histone H4 residues 36-50 was synthesized with an N-terminal linker-affinity tag motif and a C-terminal amide cap by 21st Century Biochemicals. The peptide was purified by high-performance liquid chromatography (HPLC) to greater than 95% purity and confirmed by liquid chromatography mass spectrometry (LC-MS). The sequence was Biot-Ahx-[…]-amide and contained a monomethylated lysine at position 44 (SEQ ID NO.:5).
Full-length human PRMT6 (NM_018137.2) transcript clone was amplified from an HEK 293 cDNA library, incorporating a flanking 5′ sequence encoding a FLAG tag ([…]) (SEQ ID NO.:6) fused directly to Ser 2 of PRMT6 and a 3′ sequence encoding a hexa His sequence (HHHHHH) (SEQ ID NO.:17) fused directly to Asp 375. The amplified gene was subcloned into pFastBacMam (Viva Biotech).
Column was washed with 20 mM imidazole in the same buffer and Flag-PRMT6-His was eluted with 150 mM imidazole. Pooled fractions were dialysed against buffer Ni-A and further purified by anti-flag M2 affinity chromatography. Flag-PRMT6-His was eluted with 200 ug/ml FLAG peptide in the same buffer. Pooled fractions were dialysed in 20 mM Tris, 150 mM NaCl, 10% glycerol and 5 mM (3-mercaptoethanol, pH 7.8. The purity of recovered protein was 95%.
General Procedure for PRMT6 Enzyme Assays on Peptide Substrates.
The assays were all performed in a buffer consisting of 20 mM Bicine (pH=7.6), 1 mM TCEP, 0.005% BSG, and 0.002% Tween 20, prepared on the day of use. Compounds in 100% DMSO (1 ul) were spotted into a polypropylene 384-well V-bottom plates (Greiner) using a Platemate Plus outfitted with a 384-channel head (Thermo Scientific). DMSO (1 ul) was added to Columns 11, 12, 23, 24, rows A-H for the maximum signal control and 1 ul of SAH, a known product and inhibitor of PRMT6, was added to columns 11, 12, 23, 24, rows I-P for the minimum signal control. A cocktail (40 ul) containing the PRMT6 enzyme was added by Multidrop Combi (Thermo-Fisher). The compounds were allowed to incubate with PRMT6 for 30 min at room temperature, then a cocktail (10 ul) containing SAM and peptide was added to initiate the reaction (final volume=51 ul). The final concentrations of the components were as follows: PRMT6 was 1 nM, ^3H-SAM was 200 nM, non-radiolabeled SAM was 250 nM, peptide was 75 nM, SAH in the minimum signal control wells was 1 mM, and the DMSO concentration was 2%. The assays were stopped by the addition of non-radiolabeled SAM (10 ul) to a final concentration of 400 uM, which dilutes the ^3H-SAM to a level where its incorporation into the peptide substrate is no longer detectable. 50 ul of the reaction in the 384-well polypropylene plate was then transferred to a 384-well Flashplate and the biotinylated peptides were allowed to bind to the streptavidin surface for at least 1 hour before being washed once with 0.1% Tween20 in a Biotek ELx405 plate washer. The plates were then read in a PerkinElmer TopCount plate reader to measure the quantity of ^3H-labeled peptide bound to the Flashplate surface, measured as disintegrations per minute (dpm) or alternatively, referred to as counts per minute (cpm).
as §1, §2

[1] = Table 2, biochemical evaluation, read-out: PRMT1 IC50 (class)
[2] = Table 2a, numerical, single experiment or average of multiple experiments, read-out: PRMT1 IC50
[3] = Table 2, biochemical evaluation, read-out: PRMT6 IC50 (class)
[4] = Table 2a, numerical, single experiment or average of multiple experiments, read-out: PRMT6 IC50

T2 sequence (Q96LA8 with tags, fused parts or gaps): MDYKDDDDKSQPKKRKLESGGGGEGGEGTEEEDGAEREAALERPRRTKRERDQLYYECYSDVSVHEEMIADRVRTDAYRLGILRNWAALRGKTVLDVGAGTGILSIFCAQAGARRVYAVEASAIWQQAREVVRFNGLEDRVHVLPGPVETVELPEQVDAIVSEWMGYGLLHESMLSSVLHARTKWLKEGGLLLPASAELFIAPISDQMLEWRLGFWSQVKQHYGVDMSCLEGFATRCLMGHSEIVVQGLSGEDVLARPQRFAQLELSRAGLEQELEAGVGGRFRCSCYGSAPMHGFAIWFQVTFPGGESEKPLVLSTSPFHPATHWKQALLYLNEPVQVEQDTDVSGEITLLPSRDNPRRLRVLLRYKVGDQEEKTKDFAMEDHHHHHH
T1 sequence (Q99873 with tags, fused parts or gaps): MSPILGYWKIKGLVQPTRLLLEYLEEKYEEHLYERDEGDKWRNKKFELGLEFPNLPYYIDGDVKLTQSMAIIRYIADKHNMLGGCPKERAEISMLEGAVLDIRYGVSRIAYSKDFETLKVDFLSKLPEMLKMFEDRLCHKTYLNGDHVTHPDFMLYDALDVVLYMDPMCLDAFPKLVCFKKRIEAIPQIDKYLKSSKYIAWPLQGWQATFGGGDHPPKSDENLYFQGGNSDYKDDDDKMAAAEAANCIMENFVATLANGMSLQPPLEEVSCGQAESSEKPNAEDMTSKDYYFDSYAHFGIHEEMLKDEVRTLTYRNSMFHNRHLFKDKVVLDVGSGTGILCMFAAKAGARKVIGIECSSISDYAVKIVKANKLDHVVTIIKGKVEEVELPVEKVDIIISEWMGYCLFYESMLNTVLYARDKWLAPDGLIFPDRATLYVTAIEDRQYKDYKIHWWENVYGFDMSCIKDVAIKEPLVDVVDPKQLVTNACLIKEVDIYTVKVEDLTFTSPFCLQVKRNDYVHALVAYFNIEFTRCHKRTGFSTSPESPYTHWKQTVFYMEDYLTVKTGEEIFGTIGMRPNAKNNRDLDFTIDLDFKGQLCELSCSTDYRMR

CN(CCN)Cc1ncoc1-c1ccc(C#N)cc1 [Compound 1, 4-(4-(((2-aminoethyl)(methyl)amino)methyl)oxazol-5-yl)benzonitrile]
IC50 (PRMT1; [1]): 101 to 1000 nM | IC50 (PRMT1; [2]): 314 nM | IC50 (PRMT6; [3]): 101 to 1000 nM | IC50 (PRMT6; [4]): 350 nM

CN(CCN)Cc1ccnn1-c1ccc(C#N)cc1 [Compound 2, 4-(5-(((2-aminoethyl)(methyl)amino)methyl)-1H-pyrazol-1-yl)benzonitrile]
IC50 (PRMT1; [1]): 101 to 1000 nM | IC50 (PRMT1; [2]): 157 nM | IC50 (PRMT6; [3]): < 100 nM | IC50 (PRMT6; [4]): 98.7 nM

CN(CCN)Cc1n[nH]nc1-c1ccc(C#N)cc1 [Compound 3, 4-(5-(((2-aminoethyl)(methyl)amino)methyl)-2H-1,2,3-triazol-4-yl)benzonitrile]
IC50 (PRMT1; [1]): < 100 nM | IC50 (PRMT1; [2]): 82 nM | IC50 (PRMT6; [3]): < 100 nM | IC50 (PRMT6; [4]): 70.3 nM

CN(CCN)Cc1ocnc1-c1ccc(C#N)cc1 [Compound 4, 4-(5-(((2-aminoethyl)(methyl)amino)methyl)oxazol-4-yl)benzonitrile]
IC50 (PRMT1; [1]): 101 to 1000 nM | IC50 (PRMT1; [2]): 270 nM | IC50 (PRMT6; [3]): 101 to 1000 nM | IC50 (PRMT6; [4]): 168 nM

CN(CCN)Cc1cnnn1-c1ccc(C#N)cc1 [Compound 5, 4-(5-(((2-aminoethyl)(methyl)amino)methyl)-1H-1,2,3-triazol-1-yl)benzonitrile]
IC50 (PRMT1; [1]): > 10000 nM | IC50 (PRMT1; [2]): > 10000 nM | IC50 (PRMT6; [3]): > 10000 nM | IC50 (PRMT6; [4]): > 10000 nM

CN(CCN)Cc1cncn1-c1ccc(C#N)cc1 [Compound 6, 4-(5-(((2-aminoethyl)(methyl)amino)methyl)-1H-imidazol-1-yl)benzonitrile]
IC50 (PRMT1; [1]): 1010 to 3000 nM | IC50 (PRMT1; [2]): 1680 nM | IC50 (PRMT6; [3]): 1010 to 3000 nM | IC50 (PRMT6; [4]): 1090 nM

CN(CCN)Cc1nsnc1-c1ccc(C#N)cc1 [Compound 7, 4-(4-(((2-aminoethyl)(methyl)amino)methyl)-1,2,5-thiadiazol-3-yl)benzonitrile]
IC50 (PRMT1; [1]): 101 to 1000 nM | IC50 (PRMT1; [2]): 277 nM | IC50 (PRMT6; [3]): 101 to 1000 nM | IC50 (PRMT6; [4]): 112 nM

CC(C)Oc1ccc(-n2nccc2CN(C)CCN)cc1 [Compound 8, N^1-((1-(4-isopropoxyphenyl)-1H-pyrazol-5-yl)methyl)-N^1-methylethane-1,2-diamine]
IC50 (PRMT1; [1]): < 100 nM | IC50 (PRMT1; [2]): 13.9 nM | IC50 (PRMT6; [3]): < 100 nM | IC50 (PRMT6; [4]): 46.4 nM

CN(CCN)Cc1ccnn1-c1ccc(Oc2ccccc2)cc1 [Compound 9]
IC50 (PRMT1; [1]): < 100 nM | IC50 (PRMT1; [2]): 15.4 nM | IC50 (PRMT6; [3]): < 100 nM | IC50 (PRMT6; [4]): 6.72 nM

CN(CCN)Cc1[nH]cnc1-c1ccc(C#N)cc1 [Compound 10, 4-(5-(((2-aminoethyl)(methyl)amino)methyl)-1H-imidazol-4-yl)benzonitrile]
IC50 (PRMT1; [1]): 101 to 1000 nM | IC50 (PRMT1; [2]): 215 nM | IC50 (PRMT6; [3]): 101 to 1000 nM | IC50 (PRMT6; [4]): 168 nM

CN(CCN)Cc1oncc1-c1ccc(F)cc1 [Compound 11, N^1-((4-(4-fluorophenyl)isoxazol-5-yl)methyl)-N^1-methylethane-1,2-diamine]
IC50 (PRMT1; [1]): 1010 to 3000 nM | IC50 (PRMT1; [2]): 2700 nM | IC50 (PRMT6; [3]): 1010 to 3000 nM | IC50 (PRMT6; [4]): 2950 nM
